{
  "source": "patent US7498404B2",
  "about": "“Compositions, methods and uses for a novel family of peptides” (priority 2004, dated 2009)",
  "key": {"S. cerevisiae": {"system": "S. cerevisiae", "test": "Antifungal MIC", "format": "cell-based"}, "food-producing animals": {"system": "food-producing animals", "test": "Growth promotion in food-producing animals (overall statement)", "format": "in vivo, chicken", "description": "Furthermore, unlike conventional antibiotics, the present invention may target the bacterial membrane, and there is currently not a drug target that can be altered with one or two mutations to allow development of drug resistance. […] Alternatively, but in no way limiting the present invention, the present invention may be used as an animal-use only antibiotic for bacterial infections. Also, to date, there has been no observed decrease in the growth promoting activity of the peptide."}, "Broiler Chicken [1]": {"system": "Broiler Chicken", "test": "Growth promoting Studies 1-1 and 1-2 (21-day battery study)", "format": "in vivo"}, "[2]": {"format": "physicochemical"}, "Pseudomonas": {"system": "Pseudomonas", "test": "MIC against Pseudomonas", "format": "cell-based", "description": "(§1) MIC determination assays. Staphylococcal aureus was grown to mid-log phase in LB at 37° C., and diluted by 500-fold with fresh LB and dispensed into 96-well micro-titer plates. Different concentrations of peptides were added, and the micro-titer plates were incubated at 37° C. with shaking. A minimal inhibition concentration (MIC) was determined as the lowest peptide concentration that produced a clear well. All experiments were performed in triplicates, and highly consistent MICs were obtained.\n(§2) For Gram (−) the following were the antimicrobial activities observed: E. coli: MIC>20 microgram/ml; Pseudomonas and Salmonella: MIC>100 microgram/ml."}, "Gram-positive bacteria": {"system": "Gram-positive bacteria", "test": "MIC against Gram-positive bacteria", "format": "cell-based", "details": "most Gram (+)", "description": "as §1, §2"}, "carboxypeptidase Y": {"target": "T1, carboxypeptidase Y (Saccharomyces cerevisiae, UniProt P00729)", "T1 sequence (P00729 112-532)": "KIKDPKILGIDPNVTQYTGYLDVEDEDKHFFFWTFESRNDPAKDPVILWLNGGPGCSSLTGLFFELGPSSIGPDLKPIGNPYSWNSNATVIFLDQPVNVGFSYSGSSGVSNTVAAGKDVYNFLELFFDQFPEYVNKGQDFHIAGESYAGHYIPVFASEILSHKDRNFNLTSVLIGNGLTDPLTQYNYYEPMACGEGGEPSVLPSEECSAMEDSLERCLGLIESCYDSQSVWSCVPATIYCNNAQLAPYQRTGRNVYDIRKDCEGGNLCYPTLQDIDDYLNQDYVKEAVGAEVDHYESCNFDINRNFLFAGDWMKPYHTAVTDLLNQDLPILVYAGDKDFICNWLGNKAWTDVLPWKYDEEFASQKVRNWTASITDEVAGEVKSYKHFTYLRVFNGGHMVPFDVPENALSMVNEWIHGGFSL"}, "Salmonella": {"system": "Salmonella", "test": "MIC against Salmonella", "format": "cell-based", "description": "as §1, §2"}, "[3]": {"test": "Broiler floor pen trial, 42 days, natural colibacillosis challenge", "format": "in vivo, chicken", "description": "A broiler floor pen trial to compare the performance of a new anti-microbial designated for this project as BT1583 alone and in combination with the widely used coccidiostat monensin (MON) to MON fed alone, MON in combination with the also widely used antimicrobial Bacitracin MD (BMD) and BMD alone.\nThe following levels of each treatment were evaluated:\nThe study design included 10 pens per treatment and 40 birds per pen housed on day of hatch. Two basal corn-soy based diets of decreasing protein (approximately 23 to 20%) and increasing metabolizable energy (approximately 1400 to 1455 kcal/lb) were used from Day 0 to 21 (starter feed) and Days 22 to 42 (grower feed), respectively. Treatment premixes were measured and blended into diets at required levels. Between days 0 and 21 mortality was less than 1% with all birds growing optimally and of high health across all groups.\nBeginning on study day 22, the study director modulated house temperature and air flow to mimic industry conditions conducive to outbreaks of colibacillosis within naive broiler flocks. This was done to stimulate a natural challenge for this study. Mortality climbed to a house average of approximately 10% by Day 42. A majority of these deaths occurred in groups not receiving BT1583 or MON. Lesions were consistent with those of colibacillosis (air sac, pneumonia, peri-hepatitis, peri-carditis and extreme morbidity). All mortality was documented (weight at death and post-mortem observations). All birds and feeds were weighed at 42 days. All remaining birds were euthanized on Day 42 by asphyxiation with the carcasses submitted for rendering.\nThe following variables were tested: Response Variables: Gain Per Bird, Feed Per Gain, Mortality (%), Adjusted Feed Per Gain. F test from One Way ANOVA with one blocking factor=location, at Day 42 using 0.05 level of significance.\nAll Response Variables: LSD T-test procedure for pair-wise comparisons with Type 1 error of means when ANOVA F ratio is significant, overall significance level of 0.05 used. Lines below means (see Table 30, below) indicate groups with insignificant differences in means.\nAdjusted Feed/Gain: The total weight of mortality in each pen was added to the final live weight, that value reduced by subtracting the initial weight and then dividing that value into the Total feed consumed to calculate the Adjusted Feed/Gain."}, "E. coli": {"system": "E. coli", "test": "MIC against E. coli", "format": "cell-based", "description": "as §1, §2"}, "straight run broilers [4]": {"system": "straight run broilers", "test": "Growth promoting Studies 3-1 and 3-2, pelleted starter feed, batteries", "format": "in vivo, chicken", "description": "Eight (8) study repetitions per treatment were used, again with 4 birds per pen."}, "straight run broilers [5]": {"system": "straight run broilers", "test": "Growth promoting Studies 2-1 and 2-2, mash feed, batteries", "format": "in vivo, chicken", "description": "Briefly, the peptide was used in a semi-purified form to study the growth and feed conversion of […] old straight run broilers in batteries (Studies 2-1 and 2-2). Two amounts were tested against a feed control, peptide at 6 ppm and peptide at 12 ppm, 12 repetitions were carried out per treatment with 4 birds per pen. The diet used in the study was as follows."}, "Broiler Chicken [6]": {"system": "Broiler Chicken", "test": "Growth promoting Studies 4-1 and 4-2 with direct coccidial challenge", "format": "in vivo"}, "Tetrahymena": {"system": "Tetrahymena", "test": "Anti-protozoal MIC", "format": "cell-based"}, "[7]": {"details": "MON 99 ppm, BT1583 12 ppm, BMD 55 ppm, alone or combined"}, "[8]": {"details": "Study 3-2, 12 ppm with Coban (vs Coban alone)"}, "[9]": {"details": "Study 4-1, 24 ppm with direct coccidial challenge"}, "[10]": {"details": "Study 4-2, 48 ppm with direct coccidial challenge"}},
  "note": "Marks after values point to notes of the source that are not given here.",
  "data": [
    {"substance": "Me2Bmt-L-dO-I-V-V-dK-V-dL-K-dY-L-Vol [BT1583]", "values": [
      {"measurement": "MIC", "setting": "S. cerevisiae", "result": 50, "unit": "microgram/ml"},
      {"measurement": "feed conversion improvement", "setting": "food-producing animals", "result": "about 10 points"},
      {"measurement": "Additional weight gain (%)", "setting": "Broiler Chicken [1]; Study 1-1, 10 ppm", "result": 17, "unit": "%"},
      {"measurement": "Feed conversion improvement (point)", "setting": "Broiler Chicken [1]; Study 1-1, 10 ppm", "result": 7, "unit": "point"},
      {"measurement": "Additional weight gain (%)", "setting": "Broiler Chicken [1]; Study 1-2, 30 ppm", "result": 17, "unit": "%"},
      {"measurement": "Feed conversion improvement (point)", "setting": "Broiler Chicken [1]; Study 1-2, 30 ppm", "result": 8, "unit": "point"},
      {"measurement": "only known in vitro method to inactivate", "setting": "[2]", "result": "pH 1.0 plus 100 °C overnight"},
      {"measurement": "MIC", "setting": "Pseudomonas", "result": "> 100", "unit": "microgram/ml"},
      {"measurement": "MIC", "setting": "Gram-positive bacteria", "result": 1, "unit": "microgram/ml"},
      {"measurement": "cleavage by carboxypeptidase Y", "setting": "carboxypeptidase Y", "result": "resistant"},
      {"measurement": "MIC", "setting": "Salmonella", "result": "> 100", "unit": "microgram/ml"},
      {"measurement": "efficacy against colibacillosis", "setting": "[3]; 3 to 4 week old naive broiler chickens, simulated commercial conditions", "result": "highly effective"},
      {"measurement": "feed/gain advantage over monensin and BMD fed alone and in combination", "setting": "[3]; Day 42", "result": "≥ 10", "unit": "point"},
      {"measurement": "weight gain advantage over monensin and BMD fed alone and in combination", "setting": "[3]; Day 42", "result": "≥ 20", "unit": "point"},
      {"measurement": "Day 42 Feed/Gain", "setting": "[3]; [7]", "result": "1.722^ab"},
      {"measurement": "Day 42 Gain/Bird", "setting": "[3]; [7]", "result": "4.333^ab lb"},
      {"measurement": "Day 42 Mortality (%)", "setting": "[3]; acute and chronic colibacillosis, MON 99 ppm, BT1583 12 ppm, BMD 55 ppm", "result": "2.75^a %"},
      {"measurement": "Day 42 Adjusted Feed/Gain", "setting": "[3]; adjusted for mortality weight, MON 99 ppm, BT1583 12 ppm, BMD 55 ppm", "result": "1.704^ab"},
      {"measurement": "MIC", "setting": "E. coli", "result": "> 20", "unit": "microgram/ml"},
      {"measurement": "Additional weight gain (%)", "setting": "straight run broilers [4]; Study 3-1, 12 ppm", "result": 16, "unit": "%"},
      {"measurement": "Feed conversion improvement (point)", "setting": "straight run broilers [4]; Study 3-1, 12 ppm", "result": 9, "unit": "point"},
      {"measurement": "Additional weight gain (%)", "setting": "straight run broilers [4]; [8]", "result": 5.4, "unit": "%"},
      {"measurement": "Feed conversion improvement (point)", "setting": "straight run broilers [4]; [8]", "result": 9, "unit": "point"},
      {"measurement": "20-day cumulative weight gain, Mean", "setting": "straight run broilers [4]; Table 18, BT1583 12 ppm, BMD 50 ppm, COB 90 ppm, alone or combined", "result": 831.7396},
      {"measurement": "21-day cumulative weight gain, estimated marginal Mean", "setting": "straight run broilers [4]; Table 20, BT1583 12 ppm, BMD 50 ppm, COB 90 ppm, alone or combined", "result": 831.740},
      {"measurement": "21-day cumulative weight gain, Duncan homogeneous subsets", "setting": "straight run broilers [4]; Table 21, BT1583 12 ppm, BMD 50 ppm, COB 90 ppm, alone or combined", "result": 831.7396},
      {"measurement": "20-day cumulative feed conversion rate, Mean", "setting": "straight run broilers [4]; Table 22, BT1583 12 ppm, BMD 50 ppm, COB 90 ppm, alone or combined", "result": 1.3308},
      {"measurement": "21-day cumulative feed conversion rate, estimated marginal Mean", "setting": "straight run broilers [4]; Table 24, BT1583 12 ppm, BMD 50 ppm, COB 90 ppm, alone or combined", "result": 1.331},
      {"measurement": "20-day cumulative feed conversion rate, Duncan homogeneous subsets", "setting": "straight run broilers [4]; Table 25, BT1583 12 ppm, BMD 50 ppm, COB 90 ppm, alone or combined", "result": 1.3308},
      {"measurement": "Additional weight gain (%)", "setting": "straight run broilers [5]; Study 2-1, 6 ppm", "result": 6.7, "unit": "%"},
      {"measurement": "Feed conversion improvement (point)", "setting": "straight run broilers [5]; Study 2-1, 6 ppm", "result": 9, "unit": "point"},
      {"measurement": "Additional weight gain (%)", "setting": "straight run broilers [5]; Study 2-2, 12 ppm", "result": 11, "unit": "%"},
      {"measurement": "Feed conversion improvement (point)", "setting": "straight run broilers [5]; Study 2-2, 12 ppm", "result": 10, "unit": "point"},
      {"measurement": "20-day cumulative weight gain, Mean", "setting": "straight run broilers [5]; Table 9, 6 ppm in feed", "result": 591.9750},
      {"measurement": "20-day cumulative weight gain, Mean", "setting": "straight run broilers [5]; Table 9, 12 ppm in feed", "result": 618.9340},
      {"measurement": "20-day cumulative weight gain, estimated marginal Mean", "setting": "straight run broilers [5]; Table 11, 6 ppm in feed", "result": 591.975},
      {"measurement": "20-day cumulative weight gain, estimated marginal Mean", "setting": "straight run broilers [5]; Table 11, 12 ppm in feed", "result": 618.934},
      {"measurement": "20-day cumulative weight gain, Duncan homogeneous subsets", "setting": "straight run broilers [5]; Table 12, 6 ppm in feed", "result": 591.9750},
      {"measurement": "20-day cumulative weight gain, Duncan homogeneous subsets", "setting": "straight run broilers [5]; Table 12, 12 ppm in feed", "result": 618.9340},
      {"measurement": "20-day cumulative feed conversion rate, Mean", "setting": "straight run broilers [5]; Table 13, 6 ppm in feed", "result": 1.5065},
      {"measurement": "20-day cumulative feed conversion rate, Mean", "setting": "straight run broilers [5]; Table 13, 12 ppm in feed", "result": 1.4959},
      {"measurement": "20-day cumulative feed conversion rate, estimated marginal Mean", "setting": "straight run broilers [5]; Table 15, 6 ppm in feed", "result": 1.506},
      {"measurement": "20-day cumulative feed conversion rate, estimated marginal Mean", "setting": "straight run broilers [5]; Table 15, 12 ppm in feed", "result": 1.496},
      {"measurement": "20-day cumulative feed conversion rate, Duncan homogeneous subsets", "setting": "straight run broilers [5]; Table 16, 6 ppm in feed", "result": 1.5065},
      {"measurement": "20-day cumulative feed conversion rate, Duncan homogeneous subsets", "setting": "straight run broilers [5]; Table 16, 12 ppm in feed", "result": 1.4959},
      {"measurement": "Additional weight gain (%)", "setting": "Broiler Chicken [6]; [9]", "result": 7.1, "unit": "%"},
      {"measurement": "Feed conversion improvement (point)", "setting": "Broiler Chicken [6]; [9]", "result": 13, "unit": "point"},
      {"measurement": "Additional weight gain (%)", "setting": "Broiler Chicken [6]; [10]", "result": 9.3, "unit": "%"},
      {"measurement": "Feed conversion improvement (point)", "setting": "Broiler Chicken [6]; [10]", "result": 17, "unit": "point"},
      {"measurement": "MIC", "setting": "Tetrahymena", "result": 25, "unit": "microgram/ml"}
    ]}
  ]
}
